Measurements reported in patent US20230158042A1, “COMBINATION CANCER THERAPY WITH PENTAAZA MACROCYCLIC RING COMPLEX AND HORMONE THERAPY AGENT” (Galera Labs, LLC, priority 2020, published 2023).

Columns and labels:
[1] = test system: hamster model of acute, radiation-induced oral mucositis; settings: cited from earlier work
[2] = test system: rat model of collagen-induced arthritis; settings: cited from earlier work
colon of rats = settings: experimental model of colitis; cited from earlier work
[3] = test system: rat model of inflammation; settings: cited from earlier work
adult mice = settings: lethal total body irradiation of adult mice; cited from earlier work
[4] = test system: MCF7 cells overexpressing MnSOD^K68Q; assay: MTT cell viability, MCF7 cells overexpressing MnSOD^K68Q; assay type: cell-based, human; settings: 48 hours
Experimental: (§1) In FIGS. 28a-28b, cell lysates of 250 nM, 500 nM, 1 µM cisplatin-resistant and 500pM, 1 nM and 2 nM doxorubicin-resistant MCF7 cells (cultured in drug-containing media for 3 months) were collected and immunoblotted for MnSOD—K68—Ac, MnSOD, actin and tubulin. In FIGS. 28d-28e, cell lysates of 2.5 µM, 5 µM, 10 µM cisplatin-resistant and 5 nM, 10 nM and 20 nM doxorubicin-resistant T47D cells (cultured in drug-containing media for 3 months) were collected and immunoblotted for MnSOD—K68—Ac, MnSOD, actin and tubulin. In FIGS. 28c and 28f, 10,000 MCF7 or T47D cells overexpressed with empty vector, MnSOD^WT, MnSOD^K68R or MnSOD^K68Q were plated in 96 well plate and treated with cisplatin (1 µM for MCF7 and 10 µM for T47D) or doxorubicin (2 nM for MCF7 and 20 nM for T47D) the next day. After 48 hours, MTT assay is conducted to determine the cell viability after chemotherapy drug treatment.
(§2) Cell proliferation was measured using MTT proliferation assay kit (ab211091). 10,000 exponentially growing cells were plated in regular growth medium per well into 96-well plates in triplicate. Cells were treated with specified drugs after overnight and incubated for 48 hours. […] The absorbance was read at OD=590 nm and used to evaluate cell proliferation.

[5] = test system: T47D cells overexpressing MnSOD^K68Q; assay: MTT cell viability, T47D cells overexpressing MnSOD^K68Q; assay type: cell-based, human; settings: 48 hours
Experimental: as §1, §2

MCF7-MnSOD^K68Q cells = assay: Clonogenic cell survival in MCF7-MnSOD^K68Q cells; assay type: cell-based, human
Experimental: FIGS. 25a-25b show clonogenic cell survival studies in MCF7-MnSOD^K68Q cells exposed to either: Fulv at 100 nM (in FIG. 25a); or Palb at 0.5 µM (in FIG. 25b) using standard methods. […] Error bars are ± 1 SEM. Experiments in triplicate. *** p < 0.001.
(§3) Clonogenic cell survival assay. For the clonogenic survival analysis, exponentially growing cells were replated using appropriate dilutions, and clonogenic survival was evaluated after 14 days in regular growth medium. Cells were stained with crystal violet, and colonies of >50 cells were counted and utilized to calculate clonogenic survival^46.

[6] = test system: MCF7 cells expressing shSIRT3; assay: Clonogenic cell survival in MCF7-shSIRT3 cells with hydroxy-Tam; assay type: cell-based, human; settings: 1 µM hydroxy-Tam for 120 h
Experimental: All experiments were done in triplicate. Error bars represent ± 1 SEM. **p < 0.01, and ***p < 0.001. Three-armed groups were analyzed via a one-way ANOVA statistical analysis with Tukey’s post-analysis, and two-armed groups were analyzed by a t-test.
as §3

[7] = test system: T47D cells expressing shSIRT3; assay: Clonogenic cell survival in T47D-shSIRT3 cells with hydroxy-Tam; assay type: cell-based, human; settings: 1 µM 4-hydroxy-Tam for 24 h
Source text: FIGS. 14a-14g are images and plots that illustrate that loss of SIRT3-induced MnSOD—K68 deacetylation leads to hydroxy-Tam resistance, and that such resistance is associated with increased lysine acetylation in human breast cancer cells, while mimicking deacetylation of MnSOD—K68 or pharmacologically mimicking the activity of deacetylated lysine 68 MnSOD with a manganese pentaazamacrocyclic dismutase mimetic has opposing effects. With respect to FIG. 14a, T47D-MnSOD^WT, T47D-MnSOD^K68R, and T47D-MnSOD^K68D permanent cell lines were selected for hydroxy-Tam resistance in 1 µM for 3 months, and clonogenic cell survival experiments were completed. […] With respect to FIG. 14c, T47D and T47D-HTR cells, with and without exposure to 1 µM 4-hydroxy-Tam for 24 h (HT), were measured for hydroxy-Tam response by clonogenic survival experiments. […] The cell lysates were analyzed by immunoblotting with anti-MnSOD-K122-Ac (validated as a SIRT3 deacetylation target in Tao et al., 2010, Cancer Cell), anti-MnSOD, anti-OSCP-K139-Ac (validated as a SIRT3 deacetylation target in Tao et al., 2010, Cancer Cell), anti-OSCP, anti-IDH2K413-Ac (validated as a SIRT3 deacetylation target in Someya et al., 2010, Cancer Cell), anti-IDH2, and anti-actin. […]
Clonogenic cell survival assay. […] Cells were stained with crystal violet, and colonies of >50 cells were counted and utilized to calculate clonogenic survival^46.

[8] = test system: T47D cells constitutively expressing MnSOD^K68Q; assay: Clonogenic cell survival in T47D-MnSOD^K68Q cells with hydroxy-Tam; assay type: cell-based, human; settings: 1 µM hydroxy-Tam; compared to cells expressing MnSOD^K68WT or MnSOD^K68R
LNCaP-MnSOD^K68Q cells = assay: Clonogenic cell survival in LNCaP-MnSOD^K68Q cells; assay type: cell-based; settings: 10 µM of ENZ for 72 hr
Experimental: In FIG. 20a, clonogenic cell survival experiments were done in LNCaP-ENZR cells infected with lenti-MnSOD^K68R or lenti-MnSOD^K68Q, in the presence of ENZ (10 µM). In FIG. 20b, clonogenic survival assays were done in LNCaP cells infected with lenti-MnSOD^WT, lenti-MnSOD^K68R, and lenti-MnSOD^K68Q, and selected with neomycin, and placed in 10 µM of ENZ for 72 hr. Error bars ± 1 SEM. Experiments were done in triplicate. **p < 0.01.
FIGS. 21a-21b are a chart and graph showing that pharmacologically mimicking the activity of deacetylated lysine 68 MnSOD with a manganese pentaazamacrocyclic dismutase mimetic both inhibited the growth of LNCaP-ENZR tumors and reversed the enzalutamide resistance in LNCaP-ENZR / LNCaP—MnSOD^K68Q cells and tumors. In FIG. 21a, clonogenic cell survival experiments were performed in LNCaP-ENZR (left two bars) and LNCaP—MnSOD^K68Q (right two bars) treated with ENZ, with or without GC4419 (20 µM) for 5 days. […] Tumor volumes were measured three times a week for 46 days. For each group n=10. Error bars ± 1 SEM. All experiments done in triplicate. **p < 0.01.

## [Cl-].[Cl-].[Mn+2].c1cc2nc(c1)CN[C@@H]1CCCC[C@H]1NCCN[C@@H]1CCCC[C@H]1NC2 [GC4403]
[1]
  radiation damage: attenuate the radiation damage
[2]
  joint disease: prevent joint disease
Colon of rats
  injury to the colon: very significantly reduce the injury to the colon
[3]
  inflammation: inhibit inflammation
Adult mice
  radiation damage: attenuate the radiation damage

## COc1cccc2c1C(=O)c1c(O)c3c(c(O)c1C2=O)C[C@@](O)(C(=O)CO)C[C@@H]3O[C@H]1C[C@H](N)[C@H](O)[C@H](C)O1 [DXR, doxorubicin]
[4]; DXR 2 nM
  cell viability after drug treatment (MTT): higher resistance
[5]; DXR 20 nM
  cell viability after drug treatment (MTT): higher resistance

## [NH2][Pt]([NH2])([Cl])[Cl] [CDDP, cisplatin]
[4]; CDDP 1 µM
  cell viability after drug treatment (MTT): higher resistance
[5]; CDDP 10 µM
  cell viability after drug treatment (MTT): higher resistance

## C[C@]12CC[C@@H]3c4ccc(O)cc4C[C@@H](CCCCCCCCC[S+]([O-])CCCC(F)(F)C(F)(F)F)[C@H]3[C@@H]1CC[C@@H]2O (stereo partly drawn) [Fulv, fulvestrant]
MCF7-MnSOD^K68Q cells; Fulv at 100 nM, compared to MCF7 cells expressing MnSOD^WT
  clonogenic tumor cell survival: exhibited resistance

## 4-hydroxytamoxifen [hydroxy-Tam]
[6]
  hydroxy-Tam cytotoxicity (clonogenic survival): resistance to hydroxy-Tam cytotoxicity
[7]
  hydroxy-Tam cytotoxicity (clonogenic survival): resistance to hydroxy-Tam cytotoxicity
MCF7-MnSOD^K68Q cells; 1 µM hydroxy-Tam for 5 days, compared to cells expressing MnSOD^K68WT or MnSOD^K68R
  cytotoxicity of hydroxy-Tam (clonogenic survival): significant resistance to the cytotoxicity of hydroxy-Tam
[8]
  cytotoxicity of hydroxy-Tam (clonogenic survival): significant resistance to the cytotoxicity of hydroxy-Tam

## CNC(=O)c1ccc(N2C(=S)N(c3ccc(C#N)c(C(F)(F)F)c3)C(=O)C2(C)C)cc1F [ENZ, enzalutamide, reference compound]
LNCaP-MnSOD^K68Q cells
  response to ENZ (clonogenic survival): ENZR phenotype
